Data set [1] deals with HR in human U-2 OS IndDR-GFP cells. Kind of data set: Inducible I-SceI DR-GFP assay (IndDR-GFP), inhibition of HR. The data set is classed as cell-based. The settings on record: Homo sapiens, U2OS; U-2 OS IndDR-GFP cells; 24 h with compound; ± SD; read-out: IC50, efficiency of HR inhibition in IndDR-GFP assay. How it is done: Exponentially growing U-2 OS IndDR-GFP cells were seeded at a density of 2 × 10^5 cells/well into 6-well plates with DMEM media containing 80 µg/mL G418 and indicated concentrations of RAD51i(s). For I-SceI induced samples, the media were supplemented with 0.5 µM Shield1 (Clontech, Mountain View, CA, USA) with 100 nM triamcinolone acetonide (Sigma, St. Louis, MO, USA). After 24 h of incubation, the media were removed, cells were washed with the DMEM, and the incubation continued for 48 h in DMEM containing 100 units/mL penicillin, 100 µg/mL streptomycin, and 80 µg/mL G418. Then, cells were trypsinized, trypsin solution was neutralized with an equal volume of media, and 10% formaldehyde solution in PBS was added for fixation to reach a final concentration of formaldehyde of 3.3%. The yield of GFP-positive cells indicative of HR activity was measured by flow cytometry with the Guava easyCyte system, and the data were analyzed with the InCyte program (Millipore; Burlington, VT, USA).

The subject of data set [2] is HR in U-2 OS DR-GFP cells. The data set can be described thus: Canonical DR-GFP assay, inhibition of HR. In kind it is cell-based. The settings on record: Homo sapiens, U2OS.
For data set [3], the target named is T1, HsRAD51 (Homo sapiens, UniProt Q06609).
T1 sequence (Q06609 1-339): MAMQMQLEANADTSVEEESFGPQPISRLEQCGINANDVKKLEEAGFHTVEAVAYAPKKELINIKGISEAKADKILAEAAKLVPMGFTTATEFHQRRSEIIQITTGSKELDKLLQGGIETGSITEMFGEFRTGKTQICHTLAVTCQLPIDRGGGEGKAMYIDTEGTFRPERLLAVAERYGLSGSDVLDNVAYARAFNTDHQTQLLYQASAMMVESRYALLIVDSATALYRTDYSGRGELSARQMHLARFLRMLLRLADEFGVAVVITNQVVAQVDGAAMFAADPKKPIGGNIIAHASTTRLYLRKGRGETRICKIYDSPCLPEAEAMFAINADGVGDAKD
The arrangement: method as in PMID 22380680. The settings on record: earlier work; cited from earlier work.

Data set [4] deals with RAD51 foci in U-2 OS IndDR-GFP cells. The arrangement: method as in PMID 24971740. The settings on record: earlier work; cited from earlier work.
For data set [5], the target named is T1, HsRAD51. The data set can be described thus: Surface plasmon resonance (SPR) binding to immobilized RAD51. The settings on record: 25 °C, equilibrium analysis, ± SD, read-out: KD, equilibrium dissociation constant of direct binding to hRAD51. On the procedure:
The binding of RAD51i to RAD51 was examined using a ProteOn XPR36 SPR Protein Interaction Array System (Bio-Rad, Hercules, CA, USA) at 25 °C. ProteOn GLH sensor chips were preconditioned with two 10 s pulses of 50 mM NaOH, 100 mM HCl, and 0.5% SDS followed by the system equilibration with the running buffer (20 mM sodium phosphate, 150 mM NaCl, and 0.005% Tween 20, pH 7.4). The surface of a GLH sensorchip was subsequently activated with a 1:100 dilution of a 1:1 mixture of 0.2 M EDC and 0.05 M Sulfo-NHS. Purified HsRAD51 was diluted to 500 µg/mL in 10 mM sodium acetate, pH 5.5, and injected immediately after chip activation across the ligand flow channels at 30 µL/min for 5 min. Unreacted protein was washed out, and the excess of unreacted ester groups on the sensor surface was capped by an injection of 1 M ethanolamine-HCl, pH 8.0, at 5 µL/min for 5 min. A reference surface to correct for nonspecific binding was similarly created by immobilizing an IgG b12 anti-HIV-1 gp120 antibody (IgG b12 anti-HIV-1 gp120; was obtained through the NIH AIDS Reagent Program, Division of AIDS, NIAID, NIH: Anti-HIV-1 gp120 Monoclonal (IgG1 b12) from Drs. Dennis Burton and Carlos Barbas). Serial dilutions of the compounds were prepared in the running buffer supplemented with 8% DMSO and injected at a flow rate of 100 μL/min for a 1 min association phase, followed by a 5 min dissociation phase using the “one-shot kinetics” functionality of the ProteOn instrument. Data were analyzed with ProteOn Manager Software version 3.0 (Bio-Rad; Hercules, CA, USA). The responses from the reference flow cell were subtracted to account for the non-specific binding and injection artifacts. Experiments were repeated at least three times. The equilibrium dissociation constants (KD) for the interactions were calculated in ProteOn Manager Version 3.1.0.6 (Bio-Rad; Hercules, CA, USA) using the equilibrium analysis function.

The subject of another data set is MDA-MB-231 cells. The data set can be described thus: Cell viability assay (Guava ViaCount flow cytometry), MDA-MB-231. The data set is classed as cell-based, human. The conditions noted are these: Homo sapiens. On the procedure:
(§1) For all cell viability experiments, except experiments involving MMS treatment, cells were seeded into the media containing indicated concentrations of tested compounds or corresponding amounts of DMSO in controls. The concentration of DMSO in media was 0.1%. MDA-MB-231 cells were seeded into 24-well plates at 3.5 × 10^4 cells/well for cells for a 4-day treatment or at 5000 cells/well for a 10-day treatment. MCF 10A cells were seeded into 24-well plates at 1.5 × 10^4 cells/well for a 4-day treatment or at 500 cells/well for a 10-day treatment. In the case of 10-day treatments, the media with compounds were renewed twice on the 4th and the 7th days of treatments. After completion of the treatments, cells were harvested, and their viability was determined by flow cytometry with Guava ViaCount reagent (Luminex; Austin, TX USA). Data were analyzed using the Guava ViaCount software (Millipore; Burlington, VT, USA). The IC50 values were calculated using the GraphPad Prism 5 software (San Diego, CA, USA).
(In general: Flow cytometry measures light scatter and fluorescence of single cells or particles in a stream.)

The nature of the next data set: Solubility in DMSO. In kind it is physicochemical. The settings on record: organic solvent or mixture; in 100% DMSO; read-out: Maximal soluble concentration.
In a further data set the test system is MCF 10A cells. Kind of data set: Cell viability assay (Guava ViaCount flow cytometry), MCF 10A. The data set is classed as cell-based, human. The conditions noted are these: 4-day treatment. On the procedure: as §1

Values after ≈ are worked out from the molar mass of the structure shown. Read-outs that look alike come from different tables or passages of the source.

The term IC50 denotes the concentration at which inhibition is half-maximal. By Kd is commonly meant the constant that tells how readily two partners part at equilibrium.

With `O=c1nc(/C=C/c2cccnc2)n(Cc2ccccc2Cl)c2ccccc12` [o-Cl-B02-iso], in data set [1], the IC50 turned out to be 5.56 ± 0.49 µM.
With `O=c1c2ccccc2nc(/C=C/c2cccnc2)n1Cc1ccccc1` [B02], the IC50 in data set [1] worked out at 17.7 ± 3.89 µM; in data set [2] it was 17.9 ± 3.5 µM. Also, the “Binding to RAD51 in vitro by SPR” value at HsRAD51 [3] was “binds to RAD51 directly in vitro”. Also, the “RAD51 foci formation induced by cisplatin” value in data set [4] was “disrupts RAD51 foci formation”.
On to `O=c1nc(/C=C/c2cccnc2)n(Cc2ccccc2Br)c2ccccc12` [o-Br-B02-iso], for which the IC50 in data set [1] amounted to 4.6 ± 1.28 µM.
`O=c1nc(/C=C/c2cccnc2)n(Cc2cccc(Br)c2)c2ccccc12` [m-Br-B02-iso]: in data set [1], the concentration for half-maximal inhibition (IC50) worked out at 0.9 ± 0.18 µM. Besides, on HsRAD51 [5], the Kd worked out at 8.4 ± 1.8 µM.
As for `O=C(c1cc(Cc2n[nH]c(=O)c3ccccc23)ccc1F)N1CCN(C(=O)C2CC2)CC1` [olaparib, reference compound], the half-maximal inhibitory concentration (IC50) in the data set on MDA-MB-231 cells (MDA-MB-231, 240 h, MDA-MB-231, 10-day treatment, olaparib only (DMSO), read-out: IC50 of olaparib, cell viability) was 8.6 µM; in the data set on MDA-MB-231 cells (MDA-MB-231, 240 h, MDA-MB-231 transfected with antiRAD51 siRNA_A, 10 days olaparib, read-out: IC50 of olaparib, cell viability) it was 3.2 µM; in the data set on MDA-MB-231 cells (MDA-MB-231, 240 h, MDA-MB-231 transfected with scrambled siRNA, 10 days olaparib, read-out: IC50 of olaparib, cell viability), 6.3 µM.
With `O=c1nc(/C=C/c2cccnc2)n(Cc2ccc(Br)cc2)c2ccccc12` [p-Br-B02-iso], in data set [1], the half-maximal inhibitory concentration (IC50) came to 0.8 ± 0.1 µM. The solubility in “Solubility in DMSO” was determined as 500 µM (≈ 209 µg/mL).
Take `O=c1nc(/C=C/c2cccnc2)n(Cc2ccc(I)cc2)c2ccccc12` [p-I-B02-iso]: the 50% inhibitory concentration (IC50) in data set [1] came to 0.72 ± 0.07 µM; with MDA-MB-231 cells (MDA-MB-231, 96 h, MDA-MB-231, 4-day treatment, read-out: IC50 of cell viability) it was 1.1 µM; with MCF 10A cells (Homo sapiens, 96 h, MCF 10A), 2.7 µM. Moreover, at HsRAD51 [5], the Kd is 1.4 ± 0.6 µM. The “Times lower sensitivity of MCF 10A compared with MDA-MB-231” value in the data set on MCF 10A cells (ratio of IC50) is on record as “approximately 3”.
With `O=c1nc(/C=C/c2cccnc2)n(Cc2cccc(I)c2)c2ccccc12` [m-I-B02-iso], in data set [1], the IC50 was 0.86 ± 0.02 µM.

(Values after PMC8235719, “New RAD51 Inhibitors to Target Homologous Recombination in Human Cells” (Genes, 2021).)
